According to PubChem BioAssay (NCI):
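Five compound concentrations were applied to cells in 96-well plates for 48 hours; endpoints were derived by simple linear interpolation of the resulting dose-response curve. Here, GI50 denotes the concentration required for 50% inhibition of growth. Definition used: TGI = concentration required for complete inhibition of growth.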

Key:
Assay in all cases: DTP human tumour cell line panel, 48 h
RPMI-8226 leukemia = tested on: RPMI-8226 leukemia
SF-295 CNS = tested on: SF-295 CNS
NCI-H522 lung = tested on: NCI-H522 lung
LOX IMVI melanoma = tested on: LOX IMVI melanoma
HL-60(TB) leukemia = tested on: HL-60(TB) leukemia
ACHN renal = tested on: ACHN renal
K-562 leukemia = tested on: K-562 leukemia
KM12 colon = tested on: KM12 colon
MOLT-4 leukemia = tested on: MOLT-4 leukemia
IGROV1 ovarian = tested on: IGROV1 ovarian
HT29 colon = tested on: HT29 colon
T-47D breast = tested on: T-47D breast
OVCAR-5 ovarian = tested on: OVCAR-5 ovarian
MDA-MB-435 = tested on: MDA-MB-435
UO-31 renal = tested on: UO-31 renal
A549 NSCLC = tested on: A549 NSCLC
SK-OV-3 ovarian = tested on: SK-OV-3 ovarian
SK-MEL-2 melanoma = tested on: SK-MEL-2 melanoma
MALME-3M melanoma = tested on: MALME-3M melanoma
SK-MEL-28 melanoma = tested on: SK-MEL-28 melanoma
HCC-2998 colon = tested on: HCC-2998 colon
U251 CNS = tested on: U251 CNS
DU-145 prostate = tested on: DU-145 prostate
SN12C renal = tested on: SN12C renal
M14 melanoma = tested on: M14 melanoma
TK-10 renal = tested on: TK-10 renal
NCI-H226 lung = tested on: NCI-H226 lung
NCI-H460 lung = tested on: NCI-H460 lung
CCRF-CEM leukemia = tested on: CCRF-CEM leukemia

Question: What does the source list for `CCCC(C)c1cc(Cc2cc(Cl)cc(Cl)c2O)c(O)c(Cc2cc(Cl)cc(Cl)c2O)c1` (configuration not stated)?
Answer: TGI (RPMI-8226 leukemia): 2.5 µM; GI50 (SF-295 CNS): 1.17 µM; TGI (SF-295 CNS): 3.56 µM; GI50 (NCI-H522 lung): 0.4 µM; TGI (NCI-H522 lung): 6.6 µM; GI50 (LOX IMVI melanoma): 2.44 µM; TGI (LOX IMVI melanoma): 8.89 µM; GI50 (HL-60(TB) leukemia): 1.1 µM; TGI (HL-60(TB) leukemia): 9.44 µM; GI50 (ACHN renal): 1.99 µM; TGI (ACHN renal): 10.9 µM; GI50 (K-562 leukemia): 0.34 µM; TGI (K-562 leukemia): 11.7 µM; GI50 (KM12 colon): 2.19 µM; TGI (KM12 colon): 11.4 µM; GI50 (MOLT-4 leukemia): 1.53 µM; TGI (MOLT-4 leukemia): 4.83 µM; GI50 (IGROV1 ovarian): 2.73 µM; TGI (IGROV1 ovarian): 14.5 µM; GI50 (HT29 colon): 2.83 µM; TGI (HT29 colon): 11.2 µM; GI50 (T-47D breast): 0.809 µM; TGI (T-47D breast): 6.77 µM; GI50 (OVCAR-5 ovarian): 4.05 µM; TGI (OVCAR-5 ovarian): 15 µM; GI50 (MDA-MB-435): 2.31 µM; TGI (MDA-MB-435): 10.3 µM; GI50 (UO-31 renal): 2.52 µM; TGI (UO-31 renal): 10.2 µM; GI50 (A549 NSCLC): 2.19 µM; TGI (A549 NSCLC): 12.5 µM; GI50 (SK-OV-3 ovarian): 3.36 µM; TGI (SK-OV-3 ovarian): 9.23 µM; GI50 (SK-MEL-2 melanoma): 1.76 µM; TGI (SK-MEL-2 melanoma): 4.77 µM; GI50 (MALME-3M melanoma): 1.77 µM; TGI (MALME-3M melanoma): 6.75 µM; GI50 (SK-MEL-28 melanoma): 1.19 µM; TGI (SK-MEL-28 melanoma): 10.1 µM; GI50 (HCC-2998 colon): 1.42 µM; TGI (HCC-2998 colon): 10.5 µM; GI50 (U251 CNS): 0.839 µM; TGI (U251 CNS): 11.1 µM; GI50 (DU-145 prostate): 3.89 µM; TGI (DU-145 prostate): 15.5 µM; GI50 (SN12C renal): 0.415 µM; TGI (SN12C renal): 10.4 µM; GI50 (M14 melanoma): 1.63 µM; TGI (M14 melanoma): 7.46 µM; GI50 (TK-10 renal): 2.3 µM; TGI (TK-10 renal): 11.8 µM; GI50 (NCI-H226 lung): 1.94 µM; TGI (NCI-H226 lung): 6.61 µM; GI50 (NCI-H460 lung): 1.02 µM; TGI (NCI-H460 lung): 9.34 µM; GI50 (CCRF-CEM leukemia): 0.432 µM; TGI (CCRF-CEM leukemia): 3.74 µM
